Data reported in PMC3969711 (Chembiochem : a European journal of chemical biology, 2014).
Values joined by “and” are separate entries in the source; they are usually repeats but may differ in a detail not shown here. Equal values may be shown once. Read-outs that look alike come from different tables or passages of the source.

What was measured:
LasR [1] = target: T1, LasR (Pseudomonas aeruginosa, UniProt P25084); settings: in P. aeruginosa, related reporter constructs; cited from earlier work
LasR [2] = target: T1, LasR; settings: in E. coli, related reporter constructs; cited from earlier work
wild-type P. aeruginosa = settings: cited from earlier work
LasR [3] = target: T1, LasR; type: cell-based, P. aeruginosa; settings: for Fold change of IC50: IC50 in PAO-JP2 vs PAO-JG21
LasR [4] = target: T1, LasR; assay: LasR competitive antagonism reporter assay in pump-mutant PAO-JG21; type: cell-based, P. aeruginosa; settings: PAO-JG21, 25 µg/mL PAβN

T1 sequence (P25084 whole entry): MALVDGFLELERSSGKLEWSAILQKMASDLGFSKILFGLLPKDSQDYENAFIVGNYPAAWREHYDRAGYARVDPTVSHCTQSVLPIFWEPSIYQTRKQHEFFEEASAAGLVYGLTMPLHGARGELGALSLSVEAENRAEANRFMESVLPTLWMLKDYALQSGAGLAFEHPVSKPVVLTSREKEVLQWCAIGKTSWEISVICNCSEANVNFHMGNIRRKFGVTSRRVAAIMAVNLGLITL

Compound: CCCCCCCCCC(=O)CC(=O)Nc1ccccc1 [3-oxo-C12-aniline]
- inhibition of LasR activity (LasR [1]): 30%
- inhibition of LasR activity (LasR [2]): 55%
- inhibition of pyocyanin production (wild-type P. aeruginosa): strongly inhibiting pyocyanin production
- Fold change of IC50 (LasR [3]): 6.5

Compound: Cc1cc2nc(N)[nH]c2cc1C [DMABI, 5,6-dimethyl-2-aminobenzimidazole]
- effect of pump inhibitor PAβN on LasR inhibitory potency (LasR [4]): no effect
- Fold change of IC50 (LasR [3]): 1.6
- effect of pump inhibitor PAβN on LasR inhibitory potency (LasR [3]; PAO-JP2, 25 µg/mL PAβN): no effect
- maximum inhibition of LasR activity (LasR [3]; PAO-JP2 harboring plasI-LVAgfp, dose-response (Figure S-14)): ~ 40% and 40%
